Values quoted from earlier work in patent publication US7393545B2, “Lipstatin derivative—soluble fiber tablets” (priority 1999, dated 2008).

Assays:
[1] = diet-induced obese rats, 27 mg/kg/day
[2] = in vivo
pancreatic lipase = biological target: T1, pancreatic lipase (Homo sapiens, UniProt P16233)
T1 sequence (P16233 17-465): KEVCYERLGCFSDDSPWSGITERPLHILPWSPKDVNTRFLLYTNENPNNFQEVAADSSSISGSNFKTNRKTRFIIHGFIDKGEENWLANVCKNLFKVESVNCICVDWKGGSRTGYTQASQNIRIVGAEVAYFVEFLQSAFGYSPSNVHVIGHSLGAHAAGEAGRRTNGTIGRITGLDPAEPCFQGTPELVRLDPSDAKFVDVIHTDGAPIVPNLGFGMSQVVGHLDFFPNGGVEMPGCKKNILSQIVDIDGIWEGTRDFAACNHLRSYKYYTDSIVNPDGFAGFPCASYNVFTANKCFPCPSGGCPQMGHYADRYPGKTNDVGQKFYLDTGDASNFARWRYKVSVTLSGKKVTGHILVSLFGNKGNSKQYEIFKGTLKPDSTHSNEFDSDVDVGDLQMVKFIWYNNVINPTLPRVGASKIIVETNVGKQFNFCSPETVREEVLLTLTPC

[3] = first year of a 2 year study, 228 patients, 3× daily, mildly hypocaloric diet
[4] = placebo-controlled clinical studies, over 5000 obese patients

Q: For `CCCCCCCCCCC[C@@H](C[C@@H]1OC(=O)[C@H]1CCCCCC)OC(=O)[C@H](CC(C)C)NC=O` [Orlistat, tetrahydrolipostatin], which “decrease in carcass fat” value [1] is on record?
A: Its value is 54 g.

Q: And the “decrease in liver weight” value [1]?
A: Its value is 13%.

Q: What about the “increase in large intestine weight” value [1] of the same compound?
A: The value was 38%.

Q: What about the “increase in small intestine weight” value [1] of the same compound?
A: Its value is 27%.

Q: And the “loss of body weight” value [1]?
A: The value was 65 g.

Q: What about the “retroperitoneal (RP) pad weight” value [1] of the same compound?
A: Its value is “decreases”.

Q: And the fat absorption ([1]; decreased from 93-94%)?
A: Its fat absorption is 17-19%.

Q: And the “fat contained in food whose absorption is prevented” value [2]?
A: Its value is “about one third”.

Q: And the “more weight lost than the placebo controlled group” value [3]?
A: The value was 65%.

Q: What about the “share of patients having lost >10% of their bodyweight” value [3] of the same compound?
A: Its value is “⅓”.

Q: And the “patients who lost 10% or more body weight compared to placebo and diet alone” value (first year of a two year study, moderately reduced calorie diet)?
A: Its value is 3 times.

Q: And the adverse side-effects [4]?
A: Its adverse side-effects is “no major adverse side-effects”.

Q: And the weight loss [4]?
A: Its weight loss is “significant weight loss”.

Q: What about the “inhibition of pancreatic lipase” value (pancreatic lipase) of the same compound?
A: The value was “potent and selective inhibitor”.
